Counter-ions that a name gives are not always drawn. Like-named read-outs stand apart in the source and are kept apart here.
Tests used:
[1] = tested on: SFV; experiment: microbe, parasite or virus in culture; format: cell-based, Semliki Forest virus; conditions: Semliki Forest virus; for IC50: HeLa Kyoto, read-out: IC50 SFV (7 h); for inhibition at 10 µM: M-HeLa, 7 h, read-out: % inhibition (SFV screen)
[2] = tested on: DENV-2; experiment: DENV-2 infection assay / secondary screen (E protein staining); format: cell-based, dengue virus serotype 2; conditions: Dengue virus, DENV2, Huh-7, 24 h; for inhibition at 10 µM: read-out: % inhibition (DENV-2 screen)
[3] = tested on: SINV; experiment: microbe, parasite or virus in culture; format: cell-based, Sindbis virus; conditions: Sindbis virus, HeLa Kyoto, read-out: IC50 SINV
[4] = tested on: DENV-1; experiment: microbe, parasite or virus in culture; format: cell-based, dengue virus; conditions: Dengue virus, DENV1, Huh-7, read-out: IC50 DENV-1
[5] = tested on: DENV-3; experiment: microbe, parasite or virus in culture; format: cell-based, dengue virus; conditions: Dengue virus, DENV3, Huh-7, read-out: IC50 DENV-3
[6] = tested on: ZIKV; experiment: microbe, parasite or virus in culture; format: cell-based, Zika virus; conditions: Zika virus, Huh-7, read-out: IC50 ZIKV
[7] = tested on: YF17D; experiment: organism not typed; format: cell-based, yellow fever 17D; conditions: Huh-7, read-out: IC50 YF17D
[8] = tested on: HCV; experiment: microbe, parasite or virus in culture; format: cell-based, hepatitis C virus; conditions: Hepatitis C virus, Huh7.5, read-out: IC50 HCV
[9] = tested on: VSV VLP; experiment: microbe, parasite or virus in culture; format: cell-based, vesicular stomatitis virus; conditions: Vesicular stomatitis virus, HeLa Kyoto, 24 h, read-out: IC50 VSV
[10] = tested on: RABV VLP; experiment: microbe, parasite or virus in culture; format: cell-based, rabies virus; conditions: Lyssavirus rabies, HeLa Kyoto, 24 h, read-out: IC50 RABV
[11] = tested on: H5N1 VLP; experiment: microbe, parasite or virus in culture; format: cell-based, influenza H5N1; conditions: Influenza A virus, H5N1, HeLa Kyoto, 48 h, read-out: IC50 H5N1
[12] = tested on: EBOV VLP; experiment: microbe, parasite or virus in culture; format: cell-based, Ebola virus; conditions: Zaire ebolavirus, HeLa Kyoto, 48 h, read-out: IC50 EBOV
[13] = tested on: HIV-1; experiment: microbe, parasite or virus in culture; format: cell-based, human immunodeficiency virus type 1
[14] = tested on: HSV-1; experiment: microbe, parasite or virus in culture; format: cell-based, herpes simplex virus 1; conditions: 8 h
[15] = tested on: VACV; experiment: microbe, parasite or virus in culture; format: cell-based, vaccinia virus
[16] = tested on: VSV_Blam_VLP fusion; experiment: microbe, parasite or virus in culture; format: cell-based; conditions: Vesicular stomatitis virus, HeLa Kyoto, read-out: Inhibition of VSV_Blam_VLP fusion compared to DMSO controls
[17] = tested on: SFV; format: cell-based, Semliki Forest virus
[18] = tested on: HeLa Kyoto cells; conditions: human, 7 h
[19] = tested on: Huh7 cells; conditions: human
[20] = tested on: SFV E1 trimer formation; conditions: HeLa Kyoto, MOI 100; Chloroquine 100 μM
[21] = tested on: ZIKV; conditions: AG129 mice; for Infectious virus in the blood at day 7 p.i.: immunofocus assay
[22] = in vitro; conditions: human
[23] = in vitro; conditions: human; remark: listed apart in the source
[24] = mouse, in vivo; cited from earlier work
[25] = tested on: SFV internalisation; format: cell-based, Semliki Forest virus
[26] = tested on: DID-labelled SFV hemifusion/fusion; format: cell-based, Semliki Forest virus; conditions: HeLa Kyoto, 10 μM (20 μM Raloxifene; Bafilomycin 100 nM), 40 min at 37 °C
[27] = tested on: Renilla luciferase expression (protein synthesis); format: cell-based
[28] = tested on: viruses/VLPs tested; format: cell-based
[29] = 10 mg/kg
[30] = in vivo; conditions: CD1, mouse, 1 mg/kg
[31] = read-out: IC50 DENV-2 (7 + 17 h)

Row | Compound | IC50 [1] [µM] | inhibition at 10 µM [1] [%] | inhibition at 10 µM [2] [%] | IC50 [2, 31] [µM] | IC50 ([2]; read-out: IC50 DENV-2 (24 h)) [µM] | IC50 [3] [µM] | IC50 [4] [µM] | IC50 [5] [µM] | IC50 [6] [µM] | IC50 [7] [µM] | IC50 [8] [µM] | IC50 [9] [µM] | IC50 [10] [µM] | IC50 [11] [µM] | IC50 [12] [µM] | inhibition at 10 µM [16] [%] | Activity when added before SFV or 30 and 60 min after internalisation [17] | TC50 DENV-2 (7 + 17 h) [19] [µM] | SFV E1 trimer formation [20] | Infectious virus in the blood at day 7 p.i. [21] | other results
1 | CC[C@@]1([C@@H]2O[C@@H]([C@H]3O[C@@](O)(CO)[C@H](C)C[C@@H]3C)C[C@@H]2C)CC[C@H]([C@]2(C)CC[C@]3(C[C@H](O)[C@@H](C)[C@@H]([C@@H](C)[C@@H](OC)[C@H](C)C(=O)O)O3)O2)O1 [Monensin, Monensin sodium salt] | 1.1 | 81.4 | 100 | 4.5 | 3.8 | 0.4 | 6.2 | ~3.6 | 5.5 | < 0.3 | 2.5 | 0.7 | 0.8 | 0.9 | 4.5 | > 50 | progressive and more dramatic decrease in activity | >50 | prevented trimer formation | cleared infectious virus from the blood by day 7 | IC50 HIV ([13]; virus, HeLa TZM-bl, 24 h): No inhibition; IC50 HSV (Vero) ([14]; virus, Vero cells): No inhibition; IC50 VACV [15]: No inhibition; TC50 SFV (7 h) [18]: >50 µM; TC50 SFV (7h) [18]: >50000 µM; TC50 DENV-2 (24 h) ([19]; 24 h): >50 µM; ZIKV blood titres at day 1 p.i. ([21]; qRT-PCR and immunofocus assay, vs untreated): significantly reduced blood titres; viability at 10 µM ([22]; % viability (SFV screen)): 108%; viability at 10 µM [23]: 81%; Well tolerated dose [24]: up to 70 mg/kg
2 | CC(C)(C)c1cc(C=C(C#N)C#N)cc(C(C)(C)C)c1O [Tyrphostin A9] | 2.9 | 73.5 | 99.7 | 1.2 | 0.4 | ~0.8 | 1.4 | 1.2 | < 0.3 | < 0.3 | < 0.3 | 4.1 | 1.4 | < 0.5 | 3.2 | > 50 | minor but reproducible decrease in activity | >50 | No trimers were observed | infectious virus was detected in only two of six mice | IC50 ([13]; Human immunodeficiency virus 1, 24 h, read-out: IC50 HIV): 1.1 µM; IC50 ([14]; Human alphaherpesvirus 1, Vero, read-out: IC50 HSV (Vero)): 1.5 µM; IC50 ([15]; Orthopoxvirus vaccinia, HeLa Kyoto, 8 h, read-out: IC50 VACV): 3.4 µM; Internalised SFV E1/E2 after subtilisin treatment [25]: Loss of E1/E2; Inhibition of DID-SFV de-quenching (in words) [26]: Strong inhibition of de-quenching; Decrease of Renilla signal (protein synthesis) [27]: more than 50%; Time of Addition [17]: Before and after fusion; Viruses Inhibited [28]: All tested; TC50 DENV-2 (24 h) [19]: 28.5 µM; Blood peak (Tyrphostin A9 1 mg/kg IP): 5 µM; Peak blood concentration (Tyrphostin A9 1 mg/kg PO, CD1 mice): 1.52 µM; ZIKV blood titres at days 1 and 3 ([21]; Tyrphostin A9 1 mg/kg PO, vs untreated): only minor and non significant differences; ZIKV-infected CD14+CD11c+ dendritic cells in blood, day 7 p.i. ([21]; without statistical significance): fewer infected CD14+CD11c+ dendritic cells; Reason for suspending administration ([21]; Tyrphostin A9 1 mg/kg PO, after the fourth administration): toxicity and weight loss; Toxicity [29]: toxicity; concentration at 2 h [30]: 20 nM; concentration at 8 h [30]: 760 nM; Tmax ([30]; po): 1 h; viability at 10 µM [22]: 105%; viability at 24 h, 10 µM [23]: 50.5%
